Experimental data from patent publication US4923990A, “Pyrindamycins A and B and duocarmycin A antibiotics derived from certain streptomyces culture” (priority 1986, dated 1990).
Converted amounts (≈) assume the structure as drawn. Read-outs that look alike come from different tables or passages of the source.

Legend:
[1] = test system: Bacillus subtilis No. 10707; test: Minimum inhibitory concentration, agar dilution method; assay type: cell-based; settings: pH 7
Description: (§1) (A) Minimum inhibitory concentration against various microorganisms (MIC μg/ml)
(§2) The antibacterial activity was measured by the agar dilution method, using a medium (pH 7) prepared by dissolving 3 g of Bacto-Tryptone (Manufacturedby Difco Co., Ltd.), 3 g of meat extract, 1 g of yeast extract, 1 g of glucose and 16 g of agar in 1 l of water.

Escherichia coli ATCC 26 = test: as above; assay type: cell-based; settings: ATCC26, pH 7
Description: as §1, §2

[2] = test system: Klebsiella pneumoniae ATCC 10031; test: as above; assay type: cell-based; settings: ATCC10031, pH 7
Description: as §1, §2

[3] = test system: Salmonella typhi ATCC 9992; test: as above; assay type: cell-based; settings: Salmonella enterica, pH 7
Description: as §1, §2

[4] = test system: Shigella sonnei ATCC 9290; test: as above; assay type: cell-based; settings: ATCC9290, pH 7
Description: as §1, §2

[5] = test system: Staphylococcus aureus ATCC 6538P; test: as above; assay type: cell-based; settings: ATCC6538P, pH 7
Description: as §1, §2

Acute toxicity = settings: mouse, in vivo, ip; intraperitoneal administration to mice
Sarcoma 180 solid tumor = assay type: in vivo, male ddY-strain mice; settings: for Average Tumor Volume / T/C (average tumor volume treated/control): day 10
Description: (1) Therapeutic effect against Sarcoma 180 solid tumor
Six male ddY-strain mice each having a weight of about 20 g were used for each group as test animals, and 5×10^6 cells of Sarcoma 180 ascites tumor were implanted subcutaneously into the animals at the axilla. 0.2 ml of phosphate buffered saline (hereinafter referred to as PBS) containing DC-88A or DC-89Al at the concentrations shown in Tables 3 and 4 was administered once intraperitoneally 24 hours after implantation.
The composition of PBS was 0.8 g/dl NaCl, 0.02 g/dl KCl, […] Na2 HPO4 and 0.02 g/dl KH2 PO4 (pH 7.2).
The average tumor volume (mm^3) and T/C [T: average tumor volume of the groups treated with the test compound (mm^3), C: that of control group which received an intraperitoneal administration of 0.2 ml of PBS solution (mm^3)] were determined ten days after implantation.
For comparison, 0.2 ml of PBS containing mitomycin C was intraperitoneally administered to a group of animals 24 hours after tumor implantation.

[6] = test system: lymphocytic leukemia P388 tumor; test: Therapeutic effect on lymphocytic leukemia P388 tumor; assay type: in vivo, male CDF1 mice
Description: (2) Therapeutic effect on lymphocytic leukemia P388 tumor
Five male CDF1 mice each having a weight of about 22 g were used for each group as test animals, and 1×10^6 cells of lymphocytic leukemia P388 tumor were implanted intraperitoneally into the test animals. […] The mean survival days after implantation and increased life span (T/C) (T: mean survival days for the treated groups, C: mean survival days for the control group) were calculated.
For comparison, 0.2 ml of PBS solution containing mitomycin C was intraperitoneally administered to a group of animals 24 hours after tumor implantation.

Solubility = assay type: physicochemical
[7] = methanol, ethanol, acetone, chloroform, ethyl acetate, DMSO

## COC(=O)C1(C)NC2=C(C1=O)C13CC1CN(C(=O)c1cc4cc(OC)c(OC)c(OC)c4[nH]1)C3=CC2=O (stereo not drawn) [DC-88A, duocarmycin A]
[1]
  MIC: 0.05 µg/mL (≈ 0.0985 µM)
Escherichia coli ATCC 26
  MIC: 20 µg/mL (≈ 39.4 µM)
[2]
  MIC: 0.5 µg/mL (≈ 0.985 µM)
[3]
  MIC: 10 µg/mL (≈ 19.7 µM)
[4]
  MIC: 40 µg/mL (≈ 78.8 µM)
[5]
  MIC: 0.05 µg/mL (≈ 0.0985 µM)
Acute toxicity
  LD50: ~0.94 mg/kg
Sarcoma 180 solid tumor; 0.195 mg/kg ip once 24 h after implantation, control 2124.7
  Average Tumor Volume: 1104.8 mm^3
Sarcoma 180 solid tumor; 0.195 mg/kg ip once
  T/C (average tumor volume treated/control): 0.52
Sarcoma 180 solid tumor; 0.39 mg/kg ip once 24 h after implantation, control 2124.7
  Average Tumor Volume: 849.9 mm^3
Sarcoma 180 solid tumor; 0.39 mg/kg ip once
  T/C (average tumor volume treated/control): 0.40
Sarcoma 180 solid tumor; 0.78 mg/kg ip once 24 h after implantation, control 2124.7
  Average Tumor Volume: 467.4 mm^3
Sarcoma 180 solid tumor; 0.78 mg/kg ip once
  T/C (average tumor volume treated/control): 0.22
[6]; 0.024 mg/kg, continuous administration for five days
  Increased Life Span (T/C): 1.43
[6]; 0.024 mg/kg, continuous administration for five days, control 11.0
  Mean Survival Days: 15.7 days
[6]; 0.098 mg/kg ip once
  Increased Life Span (T/C): 1.08
[6]; 0.098 mg/kg ip once 24 h after implantation, control 11.0
  Mean Survival Days: 11.9 days
[6]; 0.195 mg/kg ip once
  Increased Life Span (T/C): 1.15
[6]; 0.195 mg/kg ip once 24 h after implantation, control 11.0
  Mean Survival Days: 12.7 days
[6]; 0.39 mg/kg ip once
  Increased Life Span (T/C): 1.14
[6]; 0.39 mg/kg ip once 24 h after implantation, control 11.0
  Mean Survival Days: 12.5 days
[6]; 0.78 mg/kg ip once
  Increased Life Span (T/C): 1.12
[6]; 0.78 mg/kg ip once 24 h after implantation, control 11.0
  Mean Survival Days: 12.3 days
Solubility; [7]
  Solubility: Soluble
Solubility; water and hexane (n-hexane)
  Solubility: sparingly soluble

## COC(=O)C1(C)Nc2c(O)cc3c(c2C1=O)CC(Cl)CN3C(=O)c1cc2cc(OC)c(OC)c(OC)c2[nH]1 (stereo not drawn) [DC-89Al, duocarmycin Cl]
[1]
  MIC: 0.07 µg/mL (≈ 0.129 µM)
Escherichia coli ATCC 26
  MIC: > 100 µg/mL
[2]
  MIC: 4.2 µg/mL (≈ 7.72 µM)
[3]
  MIC: > 100 µg/mL
[5]
  MIC: > 8.4 µg/mL
Acute toxicity
  LD50: ~1.17 mg/kg
Sarcoma 180 solid tumor; 0.78125 mg/kg ip once 24 h after implantation, control 1828.0
  Average Tumor Volume: 1409.5 mm^3
Sarcoma 180 solid tumor; 0.78125 mg/kg ip once
  T/C (average tumor volume treated/control): 0.77
Sarcoma 180 solid tumor; 1.5625 mg/kg ip once 24 h after implantation
  Toxic (printed in column Average Tumor Volume): Toxic
[6]; 0.125 mg/kg ip once
  Increased Life Span (T/C): 1.28
[6]; 0.125 mg/kg ip once 24 h after implantation, control 10.7
  Mean Survival Days: 13.8 days
[6]; 0.25 mg/kg ip once
  Increased Life Span (T/C): 1.38
[6]; 0.25 mg/kg ip once 24 h after implantation, control 10.7
  Mean Survival Days: 14.8 days
[6]; 0.5 mg/kg ip once
  Increased Life Span (T/C): 1.40
[6]; 0.5 mg/kg ip once 24 h after implantation, control 10.7
  Mean Survival Days: 15.0 days
[6]; 1 mg/kg ip once
  Increased Life Span (T/C): 1.23
[6]; 1 mg/kg ip once 24 h after implantation, control 10.7
  Mean Survival Days: 13.2 days
Solubility; [7]
  Solubility: readily soluble
Solubility; water and hexane (n-hexane)
  Solubility: sparingly soluble

## CO[C@@]12[C@H](COC(N)=O)C3=C(C(=O)C(C)=C(N)C3=O)N1C[C@@H]1N[C@@H]12 [Mitomycin C, mitomycin C, reference compound]
Sarcoma 180 solid tumor; 6 mg/kg ip 24 h after implantation, control 1828.0
  Average Tumor Volume: 499.6 mm^3
Sarcoma 180 solid tumor; 6 mg/kg ip
  T/C (average tumor volume treated/control): 0.27
[6]; 6.0 mg/kg ip
  Increased Life Span (T/C): 1.60
[6]; 6.0 mg/kg ip 24 h after implantation, control 10.7
  Mean Survival Days: 17.2 days
